Measurements: US20240382487A1, “NOVEL COPI/ARF1-LIPOLYSIS PATHWAY INHIBITOR AND COMPOUND FOR ERADICATING CANCER STEM CELLS AND INDUCING DAMP-MEDIATED ANTI-TUMOR IMMUNE RESPONSE” (FUDAN UNIVERSITY, priority 2020, published 2024)
Like-named read-outs stand apart in the source and are kept apart here.

How the values were obtained:
4T1 breast carcinoma [1] = assay: Drug-treated 4T1 cells in athymic nude mice; assay type: in vivo; set-up: unit not given here; details: cells treated with 10 μM Du 102
Protocol: The immunogenicity of the reagents can be tested in mouse vaccination models (Obeid et al., 2007; Sagiv barfi et al., 2018). One flank of the mouse was injected with drug treated tumor cells, followed one week later by a second injection of syngeneic tumor cells. We tested the vaccine efficacy in CT-26 colon cancer, B16-F10 melanoma, and 4T1 breast cancer treated with DMSO or du102.
Cells will be treated with 10 μM Du 102 or DMSO treated CT26, 4T1 and B16-F10 tumor cells (5×10^5\1×10^5 and 5×10^5, respectively) were subcutaneously inoculated into 6-week-old female mice. After 7 days, equal amounts of corresponding tumor cells were seeded to the right side. Tumor cell lines were mixed with Matrigel (GIBCO, cat s̆ 354234) or resuspended in PBS and injected subcutaneously or intradermally.

[2] = system: MHC expression, CD4 and CD8 T cell infiltration; assay: MHC expression and T-cell infiltration in MYC-ON mice; assay type: in vivo
From the text: Du 102 treatment increases MHC expression. CD4 and CD8 T cell infiltration as quantified by Q-PCR in myc-on mice (Table 16).
MHC-1 or MHC-II positive infiltrating CD4+ and CD8+ T-cells measured by immunohistochemical staining of representative section.

4T1 breast carcinoma [3] = assay: Vaccination model, drug-treated 4T1 cells in BALB/c mice; assay type: in vivo; set-up: unit not given here; details: 4T1, BALB/c mice; for tumor size, left side with drug treatment: cells treated with 10 μM Du 102
B16-F10 melanoma = assay: Lung metastasis of B16-F10 melanoma after tail vein injection; assay type: in vivo, C57B/6 mice; details: B16-F10 cells treated with 10 μM Du 102, tail vein injection; lungs removed 15 days after injection
Protocol: B16-f10 tumor cells (treated with DMSO or 10 μM Du 102 treatment) was transferred intravenously via tail vein injection. Lungs were removed 15 days after injection and fixed in fekete's solution overnight. Three investigators in a blinded manner statistically available (Table 17).

[4] = system: normal human bone marrow hematopoietic stem cells (HSCs)
From the text: (§1) We tested 10 reported Arf1 inhibitors (Bill et al., 2011; Boal et al., 2010; Feng et al., 2004; Newton et al., 2006; Ohashi et al., 2012; Sáenz et al., 2009; Sorieul et al., 2011; Viaud et al., 2007), including brefeldin A (BFA), Golgicide A (GCA), LM11, Secin16, Secin H3, Secin B7, Exo1, Exo2, LG8, and LG18, on Drosophila stem cell tumors and normal human bone marrow hematopoietic stem cells (HSCs).

mice = assay: Toxicity in mice, oral gavage; assay type: in vivo; details: mouse, in vivo, po
[5] = system: Drosophila stem cell tumors; assay: Drosophila screen (stem cell / intestinal tumors); assay type: in vivo
From the text: as §1

[6] = system: liver tumors in MYC-ON mice; assay: MYC-ON liver tumor model; assay type: in vivo
From the text: We used the Tet system to generate transgenic mice conditionally expressing the myc pro-oncogene in hepatocytes, […] myc/lap TTA (lt2-myc) (shachaf et al., 2004). We crossed tre-myc mice with a transgenic line, lap TTA. in which the liver activator protein (LAP) promoter drives the expression of tetracycline trans-activator protein (TTA) in hepatocytes. We confirmed this by discontinuing the feeding of doxycycline (myc-ON) activated myc transgene expression in 3-week-old mice. Subsequently. all transgenic mice overexpressing myc succumbed to liver tumors with a mean latency to tumor onset of 12 weeks, as previously reported (shachaf et al., 2004). In this lap TTA/tet-off myc conditional transgenic mouse model, myc overexpression in adult mice reproducibly induces liver cancer, similar to hepatocellular carcinoma and/or hepatoblastoma. The transgenic tumor invades the entire liver locally and is frequently associated with malignant peritoneal effusions that spread to the thoracic cavity by metastasis and invade the lung parenchyma.
For the mouse liver tumor model, mating cages and weaning cages were administrated by a grain based rodent diet (Bio-Serv. Cat #14-727-450) containing 200 mg/kg doxycycline, and the mice were induced tumors at 6 weeks of age, by changing to a normal diet. Mice were divided into three groups, control, Du 101 treated and du102 treated. The control group was given 100 by gavage using a feeding tube 100 μl/10 g body weight (BW) 20% DMSO+80% corn oil. Du 101 treated groups were treated with 25 mg/ml Du 101. The stock solution was diluted 1:4 with corn oil to make the working solution. Dul02 treatment groups were treated with 25 mg/ml du102 stock solution diluted 1:4 with corn oil to make working solutions. The mixed working solution was administered to mice by gavage using a feeding tube. Starting from the second week of myc-0n, 5 injections per week ([…]) were given for 4 weeks, mice were monitored every 2 days, and 10 weeks later mice were euthanized and analyzed for tumor growth.
For the myc-on liver tumor model, antibodies were i.p. Mg/kg) was injected once a week for 5 consecutive weeks, the first Doxycycline was discontinued weekly after injection. Antibodies used to treat mice were as follows: anti-CD4 (clone GK1.5, BioXcell, Cat #BE0003-1), anti-CD8 a (clone 2.43, BioXcell, Cat #BE0061) Or […] rat IgG (bioxcell, cat #be0094) isotype control antibody. From the second week of myc-on initiation lasted for 4 weeks, Du 102 and DMSO were administered by gavage needle as described above, mice were monitored every 2 days, and 10 weeks later mice were euthanized and analyzed for tumor growth.
For the myc-on liver tumor model, antibodies were i.p. Injection once a week for 5 weeks, and doxycycline was discontinued weekly after the first injection. Antibodies used to treat mice were as follows: 100 ug/mouse Armenian hamster anti mouse PD1 (J43, bioxcell, cat #be0033-2) and 100 ug/mouse Armenian hamster isotype IgG (bioxcell. cat #bp0091) was used as controls. For 4 weeks from the second week of myc-on, Du 102 and DMSO were administered by gavage needle as described above, mice were monitored every 2 days. and 10 weeks later mice were euthanized and analyzed for tumor growth. Coadministration of anti-PD-1 antibodies may allow the use of lower, less toxic doses of du102, thus avoiding known side effects.

[7] = system: colorectal cancer cell line HT29; assay: In vitro cell line screening, HT29; assay type: cell-based
From the text: In different tumor cytotoxicity experiments in vitro (FIG. 2-FIG. 7), including colorectal cancer cell lines HT29 and LoVo cells, liver cancer cell Huh7, lung cancer cells H460 and A549, the arf1 inhibitor could all inhibit tumor cell growth (FIG. 2-FIG. 6), and there was a dose-dependent manner (FIG. 7).

1H-indolo-5-carbaldehyde 5,6,7,8,9,10-hexahydrocycloocta[4,5]thieno[2,3-d]pyrimidin-4-ylhydrazone [Du 102]
4T1 breast carcinoma tumor in Athymic mice (4T1 breast carcinoma [1]; Day 0): 0 | 4T1 breast carcinoma tumor in Athymic mice (4T1 breast carcinoma [1]; Day 5): 21.7 | 4T1 breast carcinoma tumor in Athymic mice (4T1 breast carcinoma [1]; Day 10): 41.3 | 4T1 breast carcinoma tumor in Athymic mice (4T1 breast carcinoma [1]; Day 15): 163.3 | 4T1 breast carcinoma tumor in Athymic mice (4T1 breast carcinoma [1]; Day 20): 385.4 | 4T1 breast carcinoma tumor in Athymic mice (4T1 breast carcinoma [1]; Day 25): 793.2 | MHC-1 ([2]; DMSO 0.6): 51.7 | MHC-II ([2]; DMSO 0.7): 43.6 | CD4 ([2]; DMSO 1.0): 13.2 | CD8 ([2]; DMSO 2.0): 13.5 | tumors on right side after vaccination on left side (4T1 breast carcinoma [3]; Day 0): 0 | tumor size, left side with drug treatment (4T1 breast carcinoma [3]; Day 0): 0 | tumors on right side after vaccination on left side (4T1 breast carcinoma [3]; Day 5): 0 | tumor size, left side with drug treatment (4T1 breast carcinoma [3]; Day 5): 0 | tumors on right side after vaccination on left side (4T1 breast carcinoma [3]; Day 10): 0 | tumor size, left side with drug treatment (4T1 breast carcinoma [3]; Day 10): 2.3 | tumors on right side after vaccination on left side (4T1 breast carcinoma [3]; Day 15): 0 | tumor size, left side with drug treatment (4T1 breast carcinoma [3]; Day 15): 18.4 | tumors on right side after vaccination on left side (4T1 breast carcinoma [3]; Day 20): 3.2 | tumor size, left side with drug treatment (4T1 breast carcinoma [3]; Day 20): 63.5 | tumors on right side after vaccination on left side (4T1 breast carcinoma [3]; Day 25): 7.9 | tumor size, left side with drug treatment (4T1 breast carcinoma [3]; Day 25): 102.4 | tumors on right side after vaccination on left side (4T1 breast carcinoma [3]; Day 30): 16.4 | tumor size, left side with drug treatment (4T1 breast carcinoma [3]; Day 30): 173.6 | lung metastases (surface tumor number) (B16-F10 melanoma): 5 | toxicity (killing normal HSCs) [4]: relatively low toxicity | toxic effects (mice): no toxic effects were observed | in vivo tumor suppressive effects ([5]; Drosophila screen, FIG. 8): good in vivo tumor suppressive effects | killing Drosophila stem cell tumors ([5]; in vivo): effective | survival time of myc-on mice [6]: prolonged the survival time | anti-tumor effects (liver tumors) ([6]; Du102 + Anti-CD4): 69.5 | anti-tumor effects (liver tumors) ([6]; Du102 + Anti-CD4/CD8): 89.7 | number of tumors ([6]; Du102 + Anti-PD-1): 4.4 | anti-tumor effects (liver tumors) ([6]; Du102 + Isotype, Table 18): 27.5 | number of tumors ([6]; Du102 + Isotype, Table 19): 42.3 | liver tumor numbers ([6]; gavage, 5 per week for 4 weeks, analyzed 10 weeks later): 26.7 | tumor suppressive effect [7]: some tumor suppressive effect | tumor suppressive effect ([7]; listed as Dul02): effective tumor suppressive effects
